Assay results taken from patent US20170290774A1, “NEUROKININ-1 RECEPTOR ANTAGONIST COMPOSITION FOR TREATMENT OF DISEASES AND CONDITIONS OF THE RESPIRATORY TRACT” (PLUS VITECH, S.L., priority 2014, published 2017).

Legend:
[1] = Saturation concentration in olive oil:ethanol (9:1); assay type: physicochemical; conditions: 25° C.
Method: Each of said mixtures was continuously and gently stirred for 10 minutes at ambient temperature (25° C.) and then maintained at rest for 60 minutes. The saturation concentration was considered to be that which was immediately less than a concentration where deposition was observed, but in which no deposition of the active ingredient was observed.

MMP-9 = assay: Immunohistochemistry of MMP-9 in respiratory tract tissue of sodium hypochlorite aerosol-treated rabbits; assay type: in vivo, New Zealand albino rabbits
Description: It is known that the factors TGF-α, TGF-β 1, TGF-β 2, TGF-β 3, SPARC, MMP-3; MMP-7, MMP-9, MMP-11, MMP-13 and MMP-14, TGF-β, NF-kB, EGF, MMP-9, VEGF and TNF-α which are produced by lung cells (pneumocytes, fibroblasts and vascular endothelial cells) and inflammatory cells (macrophages, lymphocytes and polymorphonuclear leukocytes) are involved in the pathophysiology and development of said respiratory tract diseases. […] Herein, 27 New Zealand albino rabbits (New Zealand White Rabbit) with an initial average weight about 3 kg were used in this example. All subjects were administered an aerosol of a solution consisting of a mixture of water and sodium hypochlorite (35 g sodium hypochlorite per liter of water) at a rate of 5 mL of said solution by inhalation three times a day for 7 days (days 1 to 7 of experimentation). Subsequently, from days 3 to 7, a group of 3 rabbits (Group 1) was administered an oral dose of 10 mg/kg body weight per day, another group of 3 rabbits (Group 2) was administered an oral dose of 40 mg/kg body weight per day, a third group (Group 3) was administered an oral dose of 80 mg/kg body weight per day and a fourth group (Group 4) was administered an oral dose of 100 mg/kg body weight per day. […] This mixture was administered as an aerosol by inhalation, also from days 3 to 7, to a group of 3 rabbits (group 5) at a dose of 0.05 mg/kg body weight per day, to another group of three rabbits (Group 6) at a dose of 0.1 mg/kg body weight per day, to another group of three rabbits (Group 7) at a dose of 0.2 mg/kg body weight per day and to another group of three rabbits (Group 8) at a dose of 0.4 mg/kg body weight per day. A placebo consisting only of olive oil was administered from days 3 to 7 to a control group of 3 rabbits (placebo group). In parallel, 3 rabbits were kept under identical conditions but were not administered any treatment nor the aforementioned sodium hypochlorite solution (control group). […] On day 7 of the experiment all animals were euthanized and necropsied. […] Samples were taken at the peripheral level of the lung parenchyma, just below the pleural surface. Tissue samples were also taken from the nasal cavity, pharynx, larynx and bronchi. Immunohistochemistry studies were performed for all samples to evaluate the levels of the markers TGF-α, TGF-β 1, TGF-β 2, TGF-β 3 SPARC, MMP-3; MMP-7, MMP-9, MMP-11, MMP-14, TGF-β, TNF-α and VEGF. In said immunohistochemistry studies, a sample of each sample was dehydrated by treatment with increasing concentrations of ethanol and finally xylene. Subsequently said dried samples were embedded in paraffin, thus creating a block. Said paraffin blocks were cut on a microtome to a thickness of 5 μm, and the resulting sections (slices) were placed on slides suitable for conducting immunohistochemistry techniques. Subsequently, the sections were deparaffinised by immersion in xylene and then rehydrated through immersion in a series of solutions containing decreasing concentrations of ethanol and, finally, water. […] The samples were then allowed to cool to room temperature over 10 minutes. Endogenous peroxidase activity was blocked by treatment with 3% hydrogen peroxide over 30 min at room temperature. […] In order to verify the expression of NK1 receptors, the cell samples were incubated in the presence of anti-NK1 antibodies ([…], Sigma-Aldrich) diluted 1:1000 at 4° C. overnight. After this time they were washed in 0.05M Tris buffer at room temperature. Subsequently, Envision System-HRP (Dako) reagents were added for 30 min at room temperature. Once this time had expired, the samples were again washed with 0.05 M Tris buffer, and immunoreactivity was visualized by light microscopy with a chromogenic solution with 3,3'-diaminobenzidine (DAB+; Dako, USA). In order to differentiate the cell nuclei, these were lightly stained with haematoxylin. Samples that were not incubated with the primary antibody, but wherein this was replaced by a non-immune serum were used as negative controls. […]

C[C@@H](OC1OCCN(Cc2nc(=O)[nH][nH]2)C1c1ccc(F)cc1)c1cc(C(F)(F)F)cc(C(F)(F)F)c1 (stereo in doubt) [Aprepitant, 5-([(2R,3S)-2-((R)-1-[3,5-bis(trifluoromethyl)phenyl]ethoxy)-3-(4-fluorophenyl)morpholino]methyl)-1H-1,2,4-triazol-3(2H)-one]
Saturation concentration [1]: 80 nM | Percent increase in MMP-9 with respect to the control group (MMP-9; bronchial tissue, Group 1, oral 10 mg/kg per day): 749.34% | Percent increase in MMP-9 with respect to the control group (MMP-9; bronchial tissue, Group 2, oral 40 mg/kg per day): 672.94% | Percent increase in MMP-9 with respect to the control group (MMP-9; bronchial tissue, Group 3, oral 80 mg/kg per day): 495.87% | Percent increase in MMP-9 with respect to the control group (MMP-9; bronchial tissue, Group 4, oral 100 mg/kg per day): 305.34% | % Med G5/C: percent increase in marker MMP-9 with respect to the control group (MMP-9; bronchial tissue, Group 5): 673.45% | % Med G6/C: percent increase in marker MMP-9 with respect to the control group (MMP-9; bronchial tissue, Group 6): 452.61% | % Med G7/C: percent increase in marker MMP-9 with respect to the control group (MMP-9; bronchial tissue, Group 7): 325.54% | % Med G8/C: percent increase in marker MMP-9 with respect to the control group (MMP-9; bronchial tissue, Group 8): 153.34% | Percent increase in MMP-9 with respect to the control group (MMP-9; laryngeal tissue, Group 1, oral 10 mg/kg per day): 1,290.89% | Percent increase in MMP-9 with respect to the control group (MMP-9; laryngeal tissue, Group 2, oral 40 mg/kg per day): 983.98% | Percent increase in MMP-9 with respect to the control group (MMP-9; laryngeal tissue, Group 3, oral 80 mg/kg per day): 898.18% | Percent increase in MMP-9 with respect to the control group (MMP-9; laryngeal tissue, Group 4, oral 100 mg/kg per day): 788.78% | Percent increase in MMP-9 with respect to the control group (MMP-9; laryngeal tissue, Group 5, inhalation 0.05 mg/kg per day): 989.34% | Percent increase in MMP-9 with respect to the control group (MMP-9; laryngeal tissue, Group 6, inhalation 0.1 mg/kg per day): 567.37% | Percent increase in MMP-9 with respect to the control group (MMP-9; laryngeal tissue, Group 7, inhalation 0.2 mg/kg per day): 256.47% | Percent increase in MMP-9 with respect to the control group (MMP-9; laryngeal tissue, Group 8, inhalation 0.4 mg/kg per day): 123.23% | Percent increase in MMP-9 with respect to the control group (MMP-9; lung tissue, Group 1, oral 10 mg/kg per day): 566.19% | Percent increase in MMP-9 with respect to the control group (MMP-9; lung tissue, Group 2, oral 40 mg/kg per day): 384.44% | Percent increase in MMP-9 with respect to the control group (MMP-9; lung tissue, Group 3, oral 80 mg/kg per day): 338.57% | Percent increase in MMP-9 with respect to the control group (MMP-9; lung tissue, Group 4, oral 100 mg/kg per day): 326.02% | Percent increase in MMP-9 with respect to the control group (MMP-9; lung tissue, Group 5, inhalation 0.05 mg/kg per day): 570.94% | Percent increase in MMP-9 with respect to the control group (MMP-9; lung tissue, Group 6, inhalation 0.1 mg/kg per day): 267.29% | Percent increase in MMP-9 with respect to the control group (MMP-9; lung tissue, Group 7, inhalation 0.2 mg/kg per day): 183.98% | Percent increase in MMP-9 with respect to the control group (MMP-9; lung tissue, Group 8, inhalation 0.4 mg/kg per day): 156.83% | Percent increase in MMP-9 with respect to the control group (MMP-9; nasal cavity tissue, Group 1, oral 10 mg/kg per day): 1,355.64% | Percent increase in MMP-9 with respect to the control group (MMP-9; nasal cavity tissue, Group 2, oral 40 mg/kg per day): 768.75% | Percent increase in MMP-9 with respect to the control group (MMP-9; nasal cavity tissue, Group 3, oral 80 mg/kg per day): 511.58% | Percent increase in MMP-9 with respect to the control group (MMP-9; nasal cavity tissue, Group 4, oral 100 mg/kg per day): 328.92% | Percent increase in MMP-9 with respect to the control group (MMP-9; nasal cavity tissue, Group 5, inhalation 0.05 mg/kg per day): 1,289.77% | Percent increase in MMP-9 with respect to the control group (MMP-9; nasal cavity tissue, Group 6, inhalation 0.1 mg/kg per day): 588.48% | Percent increase in MMP-9 with respect to the control group (MMP-9; nasal cavity tissue, Group 7, inhalation 0.2 mg/kg per day): 291.36% | Percent increase in MMP-9 with respect to the control group (MMP-9; nasal cavity tissue, Group 8, inhalation 0.4 mg/kg per day): 143.08% | Percent increase in MMP-9 with respect to the control group (MMP-9; pharyngeal tissue, Group 1, oral 10 mg/kg per day): 1,102.28% | Percent increase in MMP-9 with respect to the control group (MMP-9; pharyngeal tissue, Group 2, oral 40 mg/kg per day): 945.34% | Percent increase in MMP-9 with respect to the control group (MMP-9; pharyngeal tissue, Group 3, oral 80 mg/kg per day): 789.45% | Percent increase in MMP-9 with respect to the control group (MMP-9; pharyngeal tissue, Group 4, oral 100 mg/kg per day): 561.21% | Percent increase in MMP-9 with respect to the control group (MMP-9; pharyngeal tissue, Group 5, inhalation 0.05 mg/kg per day): 998.67% | Percent increase in MMP-9 with respect to the control group (MMP-9; pharyngeal tissue, Group 6, inhalation 0.1 mg/kg per day): 505.32% | Percent increase in MMP-9 with respect to the control group (MMP-9; pharyngeal tissue, Group 7, inhalation 0.2 mg/kg per day): 212.24% | Percent increase in MMP-9 with respect to the control group (MMP-9; pharyngeal tissue, Group 8, inhalation 0.4 mg/kg per day): 121.23%
